# Columns and labels:
# [1] = tested on: human CFU-g; assay: CFU-g assay (colony assay), human; format: cell-based; conditions: potency as G-CSF mimetic
# Experimental: (§1) In determining potency as G-CSF mimetics, the following assay is employed: CFU-g Assay
# (§2) The compounds of present invention are tested for potency as G-CSF mimetics in a CFU-g assay, an example of which is described in King AG, Talmadge J., Badger AM, Pelus LM. Regulation of colony stimulating activity production from bone marrow stromal cells by the hematoregulatory peptide, HP-5. Exp. Hematol. 20:223-228, 1992.
# [2] = tested on: mouse CFU-g; assay: CFU-g assay (colony assay), mouse; format: cell-based; conditions: potency as G-CSF mimetic
# Experimental: as §1, §2
smiles,measurement,setting,value
"O=c1n2c(nc3n1[C@]1(c4ccccn4)n4c(nc5nc6ccccc6n5c4=O)N[C@]1(c1ccccn1)N3)nc1ccccc12 [Compound A, 7a, 17a-bis(2-pyridyl)-16,19-dioxo-5,7a, 10,16,17a, 19-hexahydro-benzimidazo[2′,1′:4,5][1,3,5]triazino[1,2-a]benzimidazo[2″,1″:4′,5′][1,3,5]triazino[1′,2′:1,2]imidazo[4,5-d]imidazole]","human CFU-g, colony assay/% Gmax @ 3 uM",[1],41 % Gmax
same,"mouse CFU-g, colony assay/% Gmax @ 3 uM",[2],43 % Gmax
